This note sets out measurements from patent publication US7312322B1, “Genetic sequences encoding steroid and juvenile hormone receptor polypeptides and insecticidal modalities therefor” (priority 1998, dated 2007).

Data set [1] deals with T1, chimeric EcR polypeptide encoded by plasmid pSGLD (UniProt O18531+P34021, A395P/D402E/DEL360-378/E403D/F552Y/I397C/I665A/INS379CATEI/K578E/L663I/M356I/Q393S/Q448S/Q580E/R443K/S415P/S515N/S605P/T357Q/T417S/T456H/V458A/Y611F).
T1 construct: expressed in transfected cells
T1 sequence (P34021+O18531 fused with the stated changes): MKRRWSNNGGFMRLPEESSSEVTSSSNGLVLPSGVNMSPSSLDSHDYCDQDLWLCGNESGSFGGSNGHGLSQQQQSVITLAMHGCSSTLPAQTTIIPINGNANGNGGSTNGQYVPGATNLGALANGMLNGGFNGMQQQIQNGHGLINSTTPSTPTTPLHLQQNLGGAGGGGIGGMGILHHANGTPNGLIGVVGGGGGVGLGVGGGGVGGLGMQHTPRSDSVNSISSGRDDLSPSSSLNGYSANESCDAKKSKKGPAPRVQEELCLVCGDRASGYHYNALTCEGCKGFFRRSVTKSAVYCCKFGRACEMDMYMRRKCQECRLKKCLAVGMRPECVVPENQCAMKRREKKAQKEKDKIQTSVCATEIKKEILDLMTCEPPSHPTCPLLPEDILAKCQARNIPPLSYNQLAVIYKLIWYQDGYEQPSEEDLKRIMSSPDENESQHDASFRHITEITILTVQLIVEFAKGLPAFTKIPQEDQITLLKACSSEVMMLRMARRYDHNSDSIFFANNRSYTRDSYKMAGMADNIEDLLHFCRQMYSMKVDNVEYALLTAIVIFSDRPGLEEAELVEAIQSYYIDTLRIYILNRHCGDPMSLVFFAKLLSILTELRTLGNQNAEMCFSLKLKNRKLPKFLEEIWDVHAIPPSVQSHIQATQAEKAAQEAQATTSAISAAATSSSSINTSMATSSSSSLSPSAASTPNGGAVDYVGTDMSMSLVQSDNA
As to the kind of experiment: CHO cell co-transfection CAT reporter assay, chimeric EcR plasmid pSGLD. In kind it is cell-based, D. melanogaster / L. cuprina. As to conditions: 10 μM and 50 μM Muristerone A, comparable to D. melanogaster base EcR polypeptide (FIG. 2). Here is the method:
(§1) FIG. 2 is a copy of a graphical representation showing the activity of plasmid pSGLD and pSGDL, containing chimeric EcR polypeptide subunits of insect ecdysone receptors, produced as described in the Examples. Cotransfection assays were performed as described in the Examples using plasmids pSGLD and pSGDL and the CAT reporter plasmid p(EcRE)7-CAT (1 ug/ml) and an independent reporter, pPGKLacZ at 1 μg/ml each. CAT/b-Gal (%) refers to CAT reporter activity expressed as a percentage relative to β-galactosidase activity produced by the internal control reporter, pPGKLacZ.
(§2) In one exemplification of this embodiment, plasmids pSGLD and pSGDL are produced comprising coding regions derived from the EcR polypeptides of the D. melanogaster and L. cuprina ecdysone receptors. In plasmid pSGLD, the 5′-end of the open reading frame of the D. melanogaster sequence, encoding the N-terminal portion of the EcR polypeptide of the D. melanogaster ecdysone receptor to the end of the DNA-binding domain of said polypeptide, is fused to the 3′-end of the open reading frame of the L. cuprina sequence, encoding the C-terminal portion of the EcR polypeptide of the L. cuprina ecdysone receptor, from the D domain and hormone-binding domain to the carboxyl terminus. […]
For orientation: In a reporter assay the amount or activity of a reporter protein is the signal.

Data set [2] has as its target T2, chimeric EcR polypeptide encoded by plasmid pSGDL (Drosophila melanogaster, UniProt P34021, A242T/A248V/C246S/D219E/E244D/N243S/R304H/S245A/S251I/S295N/V221A/V259L/Y240F).
T2 construct: expressed in transfected cells
As to the kind of experiment: CHO cell co-transfection CAT reporter assay, chimeric EcR plasmid pSGDL. In kind it is cell-based, L. cuprina / D. melanogaster. As to conditions: 10 μM and 50 μM Muristerone A, comparable to D. melanogaster base EcR polypeptide (FIG. 2). Here is the method:
as §1, §2

In data set [3] the target is T3, EcR polypeptide of the L. cuprina ecdysone receptor (Lucilia cuprina, UniProt O18531).
T3 construct: Plasmid pF3 thus contains the complete open reading frame of the cDNA encoding the EcR polypeptide of the L. cuprina ecdysone receptor; expressed in transfected cells; host or cells: CHO cells
T3 sequence (O18531 1-757): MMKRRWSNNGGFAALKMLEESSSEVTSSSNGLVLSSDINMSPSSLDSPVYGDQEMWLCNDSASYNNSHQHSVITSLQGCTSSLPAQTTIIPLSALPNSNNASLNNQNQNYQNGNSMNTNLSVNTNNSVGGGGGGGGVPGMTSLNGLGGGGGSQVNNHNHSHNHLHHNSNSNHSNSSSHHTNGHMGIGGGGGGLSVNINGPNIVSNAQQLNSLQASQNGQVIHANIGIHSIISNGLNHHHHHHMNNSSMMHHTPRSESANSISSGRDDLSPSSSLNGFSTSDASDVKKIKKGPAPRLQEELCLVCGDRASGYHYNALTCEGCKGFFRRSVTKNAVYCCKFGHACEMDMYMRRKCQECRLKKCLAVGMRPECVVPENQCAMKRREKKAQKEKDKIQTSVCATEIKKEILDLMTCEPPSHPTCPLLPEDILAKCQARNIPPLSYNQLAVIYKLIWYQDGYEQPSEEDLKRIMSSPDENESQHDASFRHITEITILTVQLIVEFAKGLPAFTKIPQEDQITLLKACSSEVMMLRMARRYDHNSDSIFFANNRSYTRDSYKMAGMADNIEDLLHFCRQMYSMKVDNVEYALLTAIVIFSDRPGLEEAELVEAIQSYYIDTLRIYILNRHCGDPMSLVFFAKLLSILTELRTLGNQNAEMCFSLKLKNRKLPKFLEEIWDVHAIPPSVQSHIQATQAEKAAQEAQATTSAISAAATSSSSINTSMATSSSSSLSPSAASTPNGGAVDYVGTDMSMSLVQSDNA
As to the kind of experiment: CHO cell co-transfection CAT reporter assay, pSGLcEcR. In kind it is cell-based. As to conditions: CHO cells, 48 h after transfection, average of three experiments (FIG. 1). The procedure: CHO cells were co-transfected with a mixture comprising the following DNAs, lysed and assayed for CAT and β-galactosidase enzyme activity, as described in the preceding Examples: • (1) one of the expression plasmids designated pSGDmEcR, or pSGLcEcR, or the parental expression plasmid pSG5 as a negative control, at a concentration of 1 μg/ml; and • (2) the CAT reporter plasmid p(EcRE)5CAT at a concentration of 1 μg/ml; and • (3) an independent LacZ reporter plasmid, pPGKLacZ, at a concentration of 1 μg/ml, included as a control to monitor transfection efficiency.
CAT reporter gene expression was induced with 10 μM or 50 μM Muristerone A. In control samples, cells received only the carrier ethanol in place of Muristerone A.
ELISA was used to quantify the synthesis of CAT and β-galactosidase enzymes, in extracts of cells forty eight hours after transfection. Account was taken of the variation between experiments, by normalizing the level of CAT enzyme to the level of β-galactosidase enzyme present in the same extract. Fold induction represents the normalized values for CAT gene expression in cells transfected with pSGDmEcR, pSGLcEcR or pSG5 in the presence of hormone divided by the normalized values for CAT gene expression in cells transfected with the same plasmid but in the absence of hormone. […]

In data set [4] the target is T4, linker and ligand-binding regions of the D. melanogaster EcR polypeptide and partner protein (USP polypeptide) (Drosophila melanogaster, UniProt P34021).
T4 construct: made in house; host or cells: recombinant baculovirus in insect Sf21 and Sf9 cells
T4 sequence (P34021 419-654 limits assumed): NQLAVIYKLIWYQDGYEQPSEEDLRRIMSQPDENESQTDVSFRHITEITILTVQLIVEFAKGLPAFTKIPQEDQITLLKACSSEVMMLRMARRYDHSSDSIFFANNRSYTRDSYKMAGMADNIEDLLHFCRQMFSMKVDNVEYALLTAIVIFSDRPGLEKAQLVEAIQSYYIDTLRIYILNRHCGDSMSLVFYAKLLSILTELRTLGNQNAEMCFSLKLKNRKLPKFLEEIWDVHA
T4 sequence (P20153 239-498 partner limits assumed): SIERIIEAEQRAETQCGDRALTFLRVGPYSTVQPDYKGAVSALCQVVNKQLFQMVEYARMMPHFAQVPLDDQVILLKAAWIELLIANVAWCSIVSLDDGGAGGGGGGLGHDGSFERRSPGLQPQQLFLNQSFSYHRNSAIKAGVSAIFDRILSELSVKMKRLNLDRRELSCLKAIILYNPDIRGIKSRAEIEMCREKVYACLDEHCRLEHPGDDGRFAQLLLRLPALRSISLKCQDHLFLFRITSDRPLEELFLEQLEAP
As to the kind of experiment: [3H]ponasterone A binding assay in cells infected by recombinant baculovirus (modified method of Yund et al). The note with it: compared to the naturally-occurring ecdysone holoreceptor in L. cuprina embryos; no specific binding with control virus. The source says:
The segment of pDmEcR.USP.DUAL which encodes the tagged linker and ligand-binding regions of the EcR polypeptide and partner protein (USP polypeptide) sequences, placed operably under the control of polyhedrin and p10 promoters, respectively, was recombined into a baculovirus genome, by employing the Tn7 transposition system (Luckow et al, (1993). The polypeptide products were then co-expressed in insect Sf21 and Sf9 cells, where they associated into a functional complex.
The correctly-folded and associated complex formed by the truncated Ecr polypeptide and truncated EcR partner protein (USP polypeptide), is used for X-ray and NMR structural analysis and for high-throughput screens.

T2 sequence (P34021 other isoform, or with tags, fused parts or gaps with the stated changes): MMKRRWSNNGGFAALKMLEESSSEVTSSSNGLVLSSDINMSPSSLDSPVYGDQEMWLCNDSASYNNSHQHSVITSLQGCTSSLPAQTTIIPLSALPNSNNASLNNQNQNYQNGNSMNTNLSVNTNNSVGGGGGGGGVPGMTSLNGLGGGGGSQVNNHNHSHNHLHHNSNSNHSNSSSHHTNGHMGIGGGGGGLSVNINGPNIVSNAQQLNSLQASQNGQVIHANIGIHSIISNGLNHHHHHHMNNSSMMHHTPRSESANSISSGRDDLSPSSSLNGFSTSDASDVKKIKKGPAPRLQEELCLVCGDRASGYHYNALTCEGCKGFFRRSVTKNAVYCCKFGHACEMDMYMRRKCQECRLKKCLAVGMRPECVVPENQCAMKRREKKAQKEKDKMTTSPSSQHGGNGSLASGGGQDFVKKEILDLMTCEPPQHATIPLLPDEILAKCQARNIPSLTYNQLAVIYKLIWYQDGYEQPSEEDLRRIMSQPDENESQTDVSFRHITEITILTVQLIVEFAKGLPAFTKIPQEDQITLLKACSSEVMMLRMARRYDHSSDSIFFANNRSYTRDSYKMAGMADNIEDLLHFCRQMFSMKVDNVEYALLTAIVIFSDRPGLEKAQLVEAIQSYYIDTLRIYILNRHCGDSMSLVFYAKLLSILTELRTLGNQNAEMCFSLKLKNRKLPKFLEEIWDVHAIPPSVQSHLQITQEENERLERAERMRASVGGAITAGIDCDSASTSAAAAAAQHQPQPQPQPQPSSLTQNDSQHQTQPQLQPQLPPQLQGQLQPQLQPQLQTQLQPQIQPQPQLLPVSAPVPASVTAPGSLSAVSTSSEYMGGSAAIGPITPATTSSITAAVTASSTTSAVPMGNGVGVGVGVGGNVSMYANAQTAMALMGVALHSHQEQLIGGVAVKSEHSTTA

Turning to `CC(C)CC[C@@H](O)[C@](C)(O)[C@H]1CC[C@@]2(O)C3=CC(=O)[C@]4(O)C[C@@H](O)[C@@H](O)C[C@]4(C)[C@H]3[C@H](O)C[C@]12C` [Muristerone A], the “bioactivity in the CAT assay” value in data set [1] and in data set [2] was “Significant bioactivity” throughout. Further, the “CAT induction (fold induction)” value in data set [3] (50 μM steroid) is “about 30 fold”; in data set [3] (10 μm steroid) it was approximately 15 fold.
As for [^3H]ponasterone A, the “binding of labelled ligand in cells infected by the recombinant baculovirus” value in data set [4] is reported as “highly-significant increase in the binding”.
